Data on 22 molecules can be found in patent US9505724B2, “4-amino substituted condensed pyrimidine compounds as PDE4 inhibitors” (GRÜNENTHAL GMBH, priority 2013, dated 2016).

One series concerns the target T1, human PDE4B1 (Homo sapiens, UniProt Q07343).
T1 construct: host or cells: Sf9 cells
In words: cAMP HTRF assay to determine the activity of hPDE4B1. The settings on record: read-out: PDE4B IC50. It is filed as biochemical. Here is the method:
1. Determination of the PDE4B IC50 Values with a cAMP HRTF® Assay to Determine the Activity of hPDE4B1
The inhibiting effect of the compounds on the enzyme activity of human PDE4B1 is measured by the quantification of 5′-AMP, which is formed from 3′,5′-adenosine monophosphate (cAMP). Human recombinant enzyme, expressed in Sf9 cells, and the HTRF (homogeneous time-resolved fluorescence) detection method are used in the assay.
The test compound or water (control) is mixed with the human recombinant PDE4B1 enzyme (4.8 U) in a buffer consisting of 44.4 mM tris-HCl, 5.28 mM MgCl2, 2.64 mM DTT and 0.044% Tween 20 (pH 7.8). After adding the cAMP enzyme substrate (final concentration 40 nM) the mixture is incubated for 30 minutes at room temperature. Then a fluorescence acceptor (Dye2 marked with cAMP), a fluorescence donor (anti-cAMP antibody marked with a europium cryptate) and the non-specific phosphodiesterase inhibitor IBMX (3-isobutyl-1-methylxanthine; final concentration 1 mM) are added. After 60 minutes the fluorescence transfer, which correlates with the amount of remaining cAMP, is measured with a microplate reader (Rubystar, BMG) at λex=337 nm, λem=620 nm and λεm=665 nm. The enzyme activity is calculated from the quotient formed from the measured signal at 665 nm and that at 620 nm. The result is expressed as the percentage inhibition of enzyme activity of the control (without PDE4 inhibitor) (literature: N. Saldou et al., Comparison of recombinant human PDE4 isoforms: interaction with substrate and inhibitors, Cell. Signal. Vol. 10, No. 6, 427-440, 1998). The enzyme is omitted for measurement of the basal control. The averaged results are set out in Table 5.
A general note: Time-resolved FRET reads energy transfer from a long-lived donor to a nearby acceptor.

A further series has as its target human recombinant PDE4D2 (Homo sapiens, UniProt Q08499). Briefly: cAMP HTRF assay to determine the activity of hPDE4D2. It is filed as biochemical. Here is the method: 2. Determination of the PDE4D-IC50 Values with a cAMP HRTF® Assay to Determine the Activity of hPDE4D2
The further procedure and evaluation are performed in exactly the same way as in the above description of the cAMP HTRF® assay for PDE4B.

[1] abbreviates: human recombinant PDE4B1, cAMP 40 nM, averaged results (Table 5).
[2] abbreviates: comparative experiments, re-synthesised prior-art compounds (Table 6).

Counter-ions that a name gives are not always drawn. Like-named read-outs stand apart in the source and are kept apart here.

T1 sequence (Q07343 whole entry): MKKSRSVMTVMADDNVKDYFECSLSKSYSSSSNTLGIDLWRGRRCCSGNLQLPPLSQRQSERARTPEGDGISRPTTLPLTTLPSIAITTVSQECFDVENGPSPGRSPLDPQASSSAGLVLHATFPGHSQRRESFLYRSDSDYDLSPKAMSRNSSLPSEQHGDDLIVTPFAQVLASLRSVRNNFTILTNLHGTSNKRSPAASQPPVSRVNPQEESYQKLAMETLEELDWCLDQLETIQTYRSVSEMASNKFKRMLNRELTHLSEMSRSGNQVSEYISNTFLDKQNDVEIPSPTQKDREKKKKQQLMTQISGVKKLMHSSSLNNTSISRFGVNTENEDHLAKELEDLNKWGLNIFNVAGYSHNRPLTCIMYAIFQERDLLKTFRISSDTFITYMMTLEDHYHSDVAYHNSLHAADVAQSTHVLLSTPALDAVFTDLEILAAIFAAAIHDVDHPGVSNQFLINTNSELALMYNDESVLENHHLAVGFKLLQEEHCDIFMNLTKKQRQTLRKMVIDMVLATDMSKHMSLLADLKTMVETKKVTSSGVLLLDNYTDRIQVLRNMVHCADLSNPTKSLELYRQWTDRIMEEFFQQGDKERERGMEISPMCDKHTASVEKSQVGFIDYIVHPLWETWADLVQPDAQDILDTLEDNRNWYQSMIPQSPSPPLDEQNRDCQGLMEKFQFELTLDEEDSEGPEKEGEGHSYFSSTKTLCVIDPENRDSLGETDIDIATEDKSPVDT
Chain of human recombinant PDE4D2 (Q08499 303-809): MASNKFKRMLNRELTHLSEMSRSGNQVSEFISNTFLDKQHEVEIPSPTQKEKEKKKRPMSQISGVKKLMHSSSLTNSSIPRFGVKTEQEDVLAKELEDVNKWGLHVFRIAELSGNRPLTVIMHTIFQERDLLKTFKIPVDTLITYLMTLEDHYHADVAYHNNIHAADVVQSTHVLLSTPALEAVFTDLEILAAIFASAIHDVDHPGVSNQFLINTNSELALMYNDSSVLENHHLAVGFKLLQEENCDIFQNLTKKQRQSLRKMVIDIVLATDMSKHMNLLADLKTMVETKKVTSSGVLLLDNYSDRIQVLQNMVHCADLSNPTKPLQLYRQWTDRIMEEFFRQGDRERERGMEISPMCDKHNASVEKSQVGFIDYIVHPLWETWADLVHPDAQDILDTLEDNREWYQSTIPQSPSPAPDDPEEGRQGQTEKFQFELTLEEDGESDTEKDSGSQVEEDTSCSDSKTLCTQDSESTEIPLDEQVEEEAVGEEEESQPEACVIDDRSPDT

Turning to `O=C(O)Cc1ccc(Nc2nc(-c3ccc(Br)cc3)nc3c2CCC3)cc1` [Compound 1, 2-(4-(2-(4-Bromophenyl)-6,7-dihydro-5H-cyclopenta[d]pyrimidin-4-ylamino)phenyl)acetic acid], the IC50 on human PDE4B1 (setting [1]) came to 660 nM.
As for `O=C(O)Cc1ccc(Nc2nc(-c3ccc(F)c(F)c3)nc3c2CCC3)cc1` [Compound 2, 2-(4-(2-(3,4-Difluorophenyl)-6,7-dihydro-5H-cyclopenta[d]pyrimidin-4-ylamino)phenyl)acetic acid], at human PDE4B1 (setting [1]), the half-inhibitory concentration (IC50) came to 190 nM.
As for `O=C(O)Cc1ccc(Nc2nc(-c3ccc4occc4c3)nc3c2CCC3)cc1` [Compound 2-1, 2-(4-(2-(Benzofuran-5-yl)-6,7-dihydro-5H-cyclopenta[d]pyrimidin-4-ylamino)phenyl)acetic acid], on human PDE4B1 (setting [1]), the IC50 turned out to be 740 nM.
The same measure, in the same setting: the same measure for `COc1ccc(-c2nc3c(c(Nc4ccc(CC(=O)O)cc4)n2)CCC3)cc1F` [Compound 3, 2-(4-(2-(3-Fluoro-4-methoxyphenyl)-6,7-dihydro-5H-cyclopenta[d]pyrimidin-4-ylamino)phenyl)acetic acid]: 120 nM; for `COc1ccc(-c2nc3c(c(Nc4ccc(CC(=O)O)cc4)n2)CCC3)cc1Cl` [Compound 4, 2-(4-(2-(3-Chloro-4-methoxyphenyl)-6,7-dihydro-5H-cyclopenta[d]pyrimidin-4-ylamino)phenyl)acetic acid]: 70 nM; for `O=C(O)Cc1ccc(Nc2nc(-c3ccc(OC(F)F)cc3)nc3c2CCC3)cc1` [Compound 5, 2-(4-(2-(4-(Difluoromethoxy)phenyl)-6,7-dihydro-5H-cyclopenta[d]pyrimidin-4-ylamino)phenyl)acetic acid]: 490 nM.
The same measure, in the same setting: then `O=C(O)Cc1ccc(Nc2nc(-c3ccc(OC(F)(F)F)cc3)nc3c2CCC3)cc1` [Compound 6, 2-(4-(2-(4-(Trifluoromethoxy)phenyl)-6,7-dihydro-5H-cyclopenta[a]pyrimidin-4-ylamino)phenyl)acetic acid], with 3100 nM; and `CCOc1ccc(-c2nc3c(c(Nc4ccc(CC(=O)O)cc4)n2)CCC3)cc1` [Compound 7, 2-(4-(2-(4-Ethoxyphenyl)-6,7-dihydro-5H-cyclopenta[d]pyrimidin-4-ylamino)phenyl)acetic acid], with 600 nM; and `COc1ccc(-c2nc3c(c(Nc4ccc(CC(=O)O)cc4)n2)CCC3)cc1` [Compound 8, 2-(4-(2-(4-Methoxyphenyl)-6,7-dihydro-5H-cyclopenta[d]pyrimidin-4-ylamino)phenyl)acetic acid as 2,2,2-trifluoroacetic acid addition salt], with 380 nM.
Take `O=C(O)Cc1ccc(Nc2nc(-c3ccc(Cl)cc3)nc3c2CCC3)cc1` [Compound 9, 2-(4-(2-(4-Chlorophenol)-6,7-dihydro-5H-cyclopenta[d]pyrimidin-4-ylamino)phenyl)acetic acid as 2,2,2-trifluoroacetic acid addition salt]: the IC50 at human PDE4B1 (setting [1]) turned out to be 880 nM.
For `O=C(O)Cc1ccc(Nc2nc(-c3cccc(Cl)c3)nc3c2CCC3)cc1` [Compound 10, 2-(4-(2-(3-Chlorophenyl)-6,7-dihydro-5H-cyclopenta[d]pyrimidin-4-ylamino)phenyl)acetic acid], the IC50 at human PDE4B1 (setting [1]) turned out to be 300 nM.
Same read-out and setting: then `O=C(O)c1ccc(Nc2nc(-c3cccc(Cl)c3)nc3c2CCC3)cc1` [Compound 11, 4-(2-(3-Chlorophenyl)-6,7-dihydro-5H-cyclopenta[d]pyrimidin-4-ylamino)benzoic acid], with 640 nM; and `O=C(O)Cc1ccc(Nc2nc(-c3cccc(Cl)c3)nc3c2CCCC3)cc1` [Compound 12, 2-(4-(2-(3-Chlorophenyl)-5,6,7,8-tetrahydroquinazolin-4-ylamino)phenyl)acetic acid], with 550 nM.
Consider `COc1ccc(-c2nc3c(c(Nc4ccc(C(=O)O)cc4)n2)CCC3)cc1F` [Compound 13, 4-(2-(3-Fluoro-4-Methoxyphenyl)-6,7-Dihydro-5H-Cyclopenta[d]pyrimidin-4-ylamino)benzoic acid], for which the melting point was > 260 °C. In addition, on human PDE4B1 (setting [1]), the IC50 is 210 nM.
With `COc1ccc(-c2nc3c(c(Nc4ccc(C(=O)O)cc4)n2)CCC3)cc1Cl` [Compound 14, 4-(2-(3-Chloro-4-methoxyphenyl)-6,7-dihydro-5H-cyclopenta[d]pyrimidin-4-ylamino)benzoic acid], the melting point is > 260 °C. For the same molecule, the IC50 on human PDE4B1 (setting [1]) came to 140 nM.
In the same order, the values of `O=C(O)c1ccc(Nc2nc(-c3ccc(F)c(F)c3)nc3c2CCC3)cc1` [Compound 15, 4-(2-(3,4-Difluorophenyl)-6,7-dihydro-5H-cyclopenta[d]pyrimidin-4-ylamino)benzoic acid] are > 260 °C and 390 nM.
On to `O=C(O)Cc1ccc(Nc2nc(-c3ccccc3)nc3c2CCC3)cc1` [Compound 16, 2-(4-(2-Phenyl-6,7-dihydro-5H-cyclopenta[d]pyrimidin-4-ylamino)phenyl)acetic acid], for which the concentration for half-maximal inhibition (IC50) on human PDE4B1 (setting [1]) is 690 nM.
With `O=C(O)Cc1ccc(Nc2nc(-c3cccc(F)c3)nc3c2CCC3)cc1` [Compound 17, 2-(4-(2-(3-Fluorophenyl)-6,7-dihydro-5H-cyclopenta[d]pyrimidin-4-ylamino)phenyl)acetic acid], the IC50 at human PDE4B1 (setting [1]) worked out at 210 nM.
As to `O=C(O)Cc1ccc(Nc2nc(-c3cccc(Br)c3)nc3c2CCC3)cc1` [Compound 18, 2-(4-(2-(3-Bromophenyl)-6,7-dihydro-5H-cyclopenta[d]pyrimidin-4-ylamino)phenyl)acetic acid], the IC50 on human PDE4B1 (setting [1]) came to 220 nM.
On the same count and under the same terms, the same measure for `O=C(O)c1ccc(Nc2nc(-c3cccc(Cl)c3)nc3c2CCCC3)cc1` [Compound 19, 4-(2-(3-Chlorophenyl)-5,6,7,8-tetrahydroquinazoline-4-ylamino)benzoic acid]: 2140 nM.
Consider `C=CCc1c(C)nc(-c2ccc(OC)cc2)nc1Nc1ccc(CC(=O)O)cc1` [Compound S1, reference compound], for which the IC50 at human PDE4B1 (setting [2]) was 3600 nM; on human recombinant PDE4D2 (comparative experiments, re-synthesised prior-art compounds (Table 6), read-out: PDE4D IC50) it was > 10000 nM.
With `C=CCc1c(C)nc(-c2ccccc2)nc1Nc1ccc(C(=O)O)cc1` [Compound S2, reference compound], the half-inhibitory concentration (IC50) at human PDE4B1 (setting [2]) was 1100 nM; at human recombinant PDE4D2, 1300 nM.

In general, IC50 refers to the concentration needed to halve the response being measured. In general, melting point refers to the temperature of the solid-liquid transition.
